Where two headings read alike, the source gives them in different places. Where a SMILES comes first, the peptide text is derived from it. [ ]: non-standard residue; d: D form. Cit = NC(=O)NCCC[C@H](N)C(=O)O; Nle = CCCC[C@H](N)C(=O)O
Assay: Solubility by ultracentrifugation (GLP-1 variants)
Assay type: physicochemical
Conditions: for solubility: 10 mM citrate 10 mM phosphate buffer, pH 7, GLP-1 variants, 2 mg/mL in 10 mM citrate 10 mM phosphate pH 7, 30 min 500,000 g 4 °C; for Ultracentrifugation: GLP1 variants, Figure 3c; for Ultracentrifugation / First Run / Second Run: in mg/mL; for First Run / Second Run: source data Supplementary Fig. 4, GLP-1 variants, 2 stands where Table 3 prints S
Method: Relative solubility was measured using a recently developed PEG precipitation assay. For all PYY variants the standard assay worked well, and no changes had to be implemented (Fig. 2a). […] Moreover, to ensure that the results stemming from the AMS assay are consistent and reliable, we performed the 18 A experiments twice independently on different days. The results confirmed that they are indeed replicable, and we were therefore confident to use them for the validation of our approach (Supplementary Fig. 3). […] Even at final concentrations of 0.33 mg/mL (instead of 1 mg/mL) most variants remained insoluble. We used ultracentrifugation to determine the relative solubilities of the GLP-1 variants (Table 3). To confirm the reliability of this method we replicated the results on a different day with the same stock solutions (Supplementary Fig. 4).
Aliquots of 1 mg were prepared from the purified and lyophilised stocks. […] Briefly, a precipitant is titrated in increasing concentration to a fixed concentration of protein to induce precipitation of the protein. The samples are incubated for 48 h at 4° after mixing. The samples are centrifuged and the remaining protein concentration is measured in the supernatant using a plate reader. PYY and 18 A variants were dissolved in 10 mM citrate 10 mM phosphate buffer at pH 7 for a final concentration of 3 mg/mL. The assay was run with 50% 6000 PEG for PYY and with 3.8 M AMS for 18 A. To improve throughput, a multichannel robot was employed to measure several peptides at once with the workflow being kept the same as described previously. […] 120 µL of each sample were centrifuged using an OptimaTLX Ultracentrifuge and spinning for 30 min at 500,000 g at 4 °C. The supernatant was removed, and the peptide concentration was measured using a NanoDrop.

[1] = run 1, read-out: Run 1 solubility (peptide concentration in supernatant)
[2] = run 2, read-out: Run 2 solubility (peptide concentration in supernatant)

Row | Compound | solubility [1] | solubility [2] | Ultracentrifugation | First Run | Second Run
1 | CC[C@H](C)[C@H](NC(=O)[C@H](Cc1ccccc1)NC(=O)[C@H](CCC(=O)O)NC(=O)[C@H](CCCCN)NC(=O)[C@H](C)NC(=O)[C@H](CCCCNC(C)=O)NC(=O)[C@H](CCC(N)=O)NC(=O)CNC(=O)[C@H](CCC(=O)O)NC(=O)[C@H](CC(C)C)NC(=O)[C@H](Cc1ccc(O)cc1)NC(=O)[C@H](CO)NC(=O)[C@H](CO)NC(=O)[C@@H](NC(=O)[C@H](CC(=O)O)NC(=O)[C@H](CO)NC(=O)[C@@H](NC(=O)[C@H](Cc1ccccc1)NC(=O)[C@@H](NC(=O)CNC(=O)[C@H](CCC(=O)O)NC(=O)[C@H](C)NC(=O)[C@@H](N)Cc1c[nH]cn1)[C@@H](C)O)[C@@H](C)O)C(C)C)C(=O)N[C@@H](C)C(=O)N[C@@H](Cc1c[nH]c2ccccc12)C(=O)N[C@@H](CC(C)C)C(=O)N[C@H](C(=O)N[C@@H](CCCCN)C(=O)NCC(=O)N[C@@H](CCCNC(=N)N)C(N)=O)C(C)C [Compound 4] (H-HAEGTFTSDVSSYLEGQK(Ac)AKEFIAWLVKGR-NH2; N-terminus assumed) | > 2000 µg/mL | > 2000 µg/mL | 2 | 2 | 2
2 | CCCC[C@H](NC(=O)[C@H](CCC(=O)O)NC(=O)[C@H](C)NC(=O)[C@@H](N)Cc1c[nH]cn1)C(=O)N[C@H](C(=O)N[C@@H](Cc1ccccc1)C(=O)N[C@H](C(=O)N[C@@H](CO)C(=O)N[C@@H](CC(=O)O)C(=O)N[C@H](C(=O)N[C@@H](CO)C(=O)N[C@@H](CO)C(=O)N[C@@H](Cc1ccc(O)cc1)C(=O)N[C@@H](CC(C)C)C(=O)N[C@@H](CCC(=O)O)C(=O)NCC(=O)N[C@@H](CCCNC(N)=O)C(=O)N[C@@H](C)C(=O)N[C@@H](C)C(=O)N[C@@H](CCCCN)C(=O)N[C@@H](CCC(=O)O)C(=O)N[C@@H](Cc1ccccc1)C(=O)N[C@H](C(=O)N[C@@H](C)C(=O)N[C@@H](Cc1c[nH]c2ccccc12)C(=O)N[C@@H](CC(C)C)C(=O)N[C@H](C(=O)N[C@@H](CCCCN)C(=O)NCC(=O)N[C@@H](CCCNC(=N)N)C(N)=O)C(C)C)[C@@H](C)CC)C(C)C)[C@@H](C)O)[C@@H](C)O [Compound 10] (H-HAE[Nle]TFTSDVSSYLEG[Cit]AAKEFIAWLVKGR-NH2; N-terminus assumed) | 150 µg/mL | 120 µg/mL | 0.1367 | 0.15 | 0.1234
3 | CCCC[C@H](NC(=O)[C@H](CCC(N)=O)NC(=O)CNC(=O)[C@H](CCC(=O)O)NC(=O)[C@H](CC(C)C)NC(=O)[C@H](Cc1ccc(O)cc1)NC(=O)[C@H](CO)NC(=O)[C@H](CO)NC(=O)[C@@H](NC(=O)[C@H](CC(=O)O)NC(=O)[C@H](CO)NC(=O)[C@@H](NC(=O)[C@H](Cc1ccccc1)NC(=O)[C@@H](NC(=O)CNC(=O)[C@H](CCC(=O)O)NC(=O)[C@H](C)NC(=O)[C@@H](N)Cc1c[nH]cn1)[C@@H](C)O)[C@@H](C)O)C(C)C)C(=O)N[C@@H](C)C(=O)N[C@@H](CCCCN)C(=O)N[C@@H](CCC(=O)O)C(=O)N[C@@H](Cc1ccccc1)C(=O)N[C@H](C(=O)N[C@@H](C)C(=O)N[C@@H](Cc1c[nH]c2ccccc12)C(=O)N[C@@H](CC(C)C)C(=O)N[C@H](C(=O)N[C@@H](CCCCN)C(=O)NCC(=O)N[C@@H](CCCNC(=N)N)C(N)=O)C(C)C)[C@@H](C)CC [Compound 3] (H-HAEGTFTSDVSSYLEGQ[Nle]AKEFIAWLVKGR-NH2; N-terminus assumed) | 90 µg/mL | 160 µg/mL | 0.1242 | 0.086 | 0.1624
